Holding throughout (assay): Kinase selectivity, DiscoverX scanMAX Kinase assay panel (% control)
Holding throughout (assay type): binding

Experiment [1] addresses T1, kinases of the scanMAX Kinase assay panel (Homo sapiens, UniProt Q96NX5).
T1 construct: purchased DiscoverX Co. (contract measurement) scanMAX Kinase assay panel
Conditions: CAMK1G; 1 uM. In outline:
(§1)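 A 1 uM DMSO solution of compound was applied across the panel kinases, and results were expressed as % control relative to DMSO (100%) and a positive control (0%).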

Experiment [2] concerns the target T2, kinases of the scanMAX Kinase assay panel (Homo sapiens, UniProt Q9BQI3).
T2 construct: purchased DiscoverX Co. (contract measurement) scanMAX Kinase assay panel
The conditions noted are these: EIF2AK1; 1 uM. An outline of the steps: as §1

Experiment [3] has as its target T3, kinases of the scanMAX Kinase assay panel (Homo sapiens, UniProt P09769).
T3 construct: purchased DiscoverX Co. (contract measurement) scanMAX Kinase assay panel
The conditions noted are these: FGR; 1 uM. An outline of the steps: as §1

The target of experiment [4] is T4, kinases of the scanMAX Kinase assay panel (Homo sapiens, UniProt Q00532).
T4 construct: purchased DiscoverX Co. (contract measurement) scanMAX Kinase assay panel
T4 sequence (Q00532 whole entry): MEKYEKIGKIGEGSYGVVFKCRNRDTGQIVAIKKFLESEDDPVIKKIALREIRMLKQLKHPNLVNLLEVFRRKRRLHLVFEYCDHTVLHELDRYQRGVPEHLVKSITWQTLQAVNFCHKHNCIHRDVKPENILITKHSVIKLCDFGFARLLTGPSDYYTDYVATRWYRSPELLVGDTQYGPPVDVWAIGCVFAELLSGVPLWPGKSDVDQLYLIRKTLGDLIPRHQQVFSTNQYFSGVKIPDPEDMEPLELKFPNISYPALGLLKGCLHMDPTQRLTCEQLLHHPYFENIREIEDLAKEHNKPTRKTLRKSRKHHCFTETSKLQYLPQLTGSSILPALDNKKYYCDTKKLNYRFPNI
Conditions: CDKL1; 1 uM. In outline:
as §1

In experiment [5] the target is T5, kinases of the scanMAX Kinase assay panel (Homo sapiens, UniProt Q96Q40).
T5 construct: purchased DiscoverX Co. (contract measurement) scanMAX Kinase assay panel
T5 sequence (Q96Q40 whole entry): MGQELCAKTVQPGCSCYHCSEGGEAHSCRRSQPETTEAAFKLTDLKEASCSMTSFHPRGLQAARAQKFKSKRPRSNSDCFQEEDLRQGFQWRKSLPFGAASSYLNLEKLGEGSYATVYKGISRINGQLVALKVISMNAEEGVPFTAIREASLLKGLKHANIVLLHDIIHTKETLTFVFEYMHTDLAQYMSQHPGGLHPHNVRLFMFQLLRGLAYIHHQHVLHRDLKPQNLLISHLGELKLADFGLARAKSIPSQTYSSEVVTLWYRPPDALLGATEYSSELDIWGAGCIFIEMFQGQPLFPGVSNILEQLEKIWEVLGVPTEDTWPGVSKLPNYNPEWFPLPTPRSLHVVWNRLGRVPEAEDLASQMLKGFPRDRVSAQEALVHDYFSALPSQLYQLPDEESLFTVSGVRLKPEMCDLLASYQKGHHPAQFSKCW
The conditions noted are these: PFTAIRE2; 1 uM. An outline of the steps: as §1

The target of experiment [6] is T6, kinases of the scanMAX Kinase assay panel (Homo sapiens, UniProt P15056).
T6 construct: purchased DiscoverX Co. (contract measurement) scanMAX Kinase assay panel
T6 sequence (P15056 whole entry): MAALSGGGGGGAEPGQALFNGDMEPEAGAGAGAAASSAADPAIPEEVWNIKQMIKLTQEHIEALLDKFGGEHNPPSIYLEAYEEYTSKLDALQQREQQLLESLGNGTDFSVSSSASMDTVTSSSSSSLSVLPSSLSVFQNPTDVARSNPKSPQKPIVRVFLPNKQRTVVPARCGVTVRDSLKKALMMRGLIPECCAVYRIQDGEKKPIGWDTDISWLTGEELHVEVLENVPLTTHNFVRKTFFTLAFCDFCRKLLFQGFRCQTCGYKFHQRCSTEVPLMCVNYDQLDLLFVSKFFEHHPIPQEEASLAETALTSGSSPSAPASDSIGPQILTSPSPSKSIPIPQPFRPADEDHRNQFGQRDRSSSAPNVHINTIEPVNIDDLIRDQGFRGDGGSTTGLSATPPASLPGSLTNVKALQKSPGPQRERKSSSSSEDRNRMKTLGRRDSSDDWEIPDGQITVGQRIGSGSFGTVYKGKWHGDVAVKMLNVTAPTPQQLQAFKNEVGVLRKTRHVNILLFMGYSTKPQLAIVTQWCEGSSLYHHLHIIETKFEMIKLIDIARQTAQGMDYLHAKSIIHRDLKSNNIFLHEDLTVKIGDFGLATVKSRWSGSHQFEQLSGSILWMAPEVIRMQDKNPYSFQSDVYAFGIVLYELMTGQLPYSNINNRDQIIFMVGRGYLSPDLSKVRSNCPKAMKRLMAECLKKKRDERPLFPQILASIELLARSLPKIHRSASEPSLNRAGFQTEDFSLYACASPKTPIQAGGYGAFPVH
Conditions: BRAF; 1 uM. In outline:
as §1

Experiment [7] concerns the target T7, kinases of the scanMAX Kinase assay panel (Homo sapiens, UniProt P07949, M918T).
T7 construct: purchased DiscoverX Co. (contract measurement) scanMAX Kinase assay panel
Conditions: kinase RET(M918T); 1 uM in DMSO. An outline of the steps: as §1

Experiment [8] deals with T8, kinases of the scanMAX Kinase assay panel (Homo sapiens, UniProt Q9H4A3).
T8 construct: purchased DiscoverX Co. (contract measurement) scanMAX Kinase assay panel
The conditions noted are these: kinase WNK1; 1 uM in DMSO. An outline of the steps: as §1

Experiment [9] has as its target T9, kinases of the scanMAX Kinase assay panel (Homo sapiens, UniProt P27361).
T9 construct: purchased DiscoverX Co. (contract measurement) scanMAX Kinase assay panel
The conditions noted are these: ERK1; 1 uM. An outline of the steps: as §1

For experiment [10], the target named is T10, kinases of the scanMAX Kinase assay panel (Homo sapiens, UniProt P57058).
T10 construct: purchased DiscoverX Co. (contract measurement) scanMAX Kinase assay panel
T10 sequence (P57058 1-714): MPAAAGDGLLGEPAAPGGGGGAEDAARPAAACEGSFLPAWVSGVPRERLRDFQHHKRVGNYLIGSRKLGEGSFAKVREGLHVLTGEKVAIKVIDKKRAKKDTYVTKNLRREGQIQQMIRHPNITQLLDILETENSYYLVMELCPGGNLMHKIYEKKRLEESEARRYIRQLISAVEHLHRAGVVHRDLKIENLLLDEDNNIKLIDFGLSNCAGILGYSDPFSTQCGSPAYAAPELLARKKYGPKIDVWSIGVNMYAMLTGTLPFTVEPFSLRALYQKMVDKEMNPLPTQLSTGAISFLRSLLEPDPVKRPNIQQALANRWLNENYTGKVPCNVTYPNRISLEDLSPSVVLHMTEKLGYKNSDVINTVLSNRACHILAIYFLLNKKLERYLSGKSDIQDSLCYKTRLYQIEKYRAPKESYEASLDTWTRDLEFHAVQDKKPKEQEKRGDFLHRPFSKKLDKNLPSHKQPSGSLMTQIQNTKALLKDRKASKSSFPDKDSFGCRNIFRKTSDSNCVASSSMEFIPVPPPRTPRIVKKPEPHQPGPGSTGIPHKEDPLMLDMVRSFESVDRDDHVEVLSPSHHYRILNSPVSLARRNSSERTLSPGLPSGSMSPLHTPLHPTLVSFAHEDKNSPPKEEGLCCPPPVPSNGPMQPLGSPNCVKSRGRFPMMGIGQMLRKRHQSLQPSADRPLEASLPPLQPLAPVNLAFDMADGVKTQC
The conditions noted are these: HUNK; 1 uM. An outline of the steps: as §1

Experiment [11] concerns the target T11, kinases of the scanMAX Kinase assay panel (Homo sapiens, UniProt P51955).
T11 construct: purchased DiscoverX Co. (contract measurement) scanMAX Kinase assay panel
T11 sequence (P51955 1-445): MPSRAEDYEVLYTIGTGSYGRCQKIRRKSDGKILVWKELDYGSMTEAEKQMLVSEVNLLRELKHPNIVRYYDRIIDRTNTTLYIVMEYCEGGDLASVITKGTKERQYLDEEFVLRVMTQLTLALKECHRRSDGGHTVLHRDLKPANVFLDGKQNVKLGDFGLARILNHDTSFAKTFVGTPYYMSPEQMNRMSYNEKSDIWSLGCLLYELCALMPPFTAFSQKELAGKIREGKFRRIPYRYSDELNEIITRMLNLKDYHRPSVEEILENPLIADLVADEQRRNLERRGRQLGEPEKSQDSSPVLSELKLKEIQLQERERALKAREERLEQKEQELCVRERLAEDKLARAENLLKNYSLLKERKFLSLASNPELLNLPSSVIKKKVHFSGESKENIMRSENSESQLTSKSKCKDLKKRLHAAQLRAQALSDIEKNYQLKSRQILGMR
The conditions noted are these: NEK2; 1 uM. An outline of the steps: as §1

For experiment [12], the target named is T12, kinases of the scanMAX Kinase assay panel (Homo sapiens, UniProt P11309).
T12 construct: purchased DiscoverX Co. (contract measurement) scanMAX Kinase assay panel
T12 sequence (P11309 whole entry): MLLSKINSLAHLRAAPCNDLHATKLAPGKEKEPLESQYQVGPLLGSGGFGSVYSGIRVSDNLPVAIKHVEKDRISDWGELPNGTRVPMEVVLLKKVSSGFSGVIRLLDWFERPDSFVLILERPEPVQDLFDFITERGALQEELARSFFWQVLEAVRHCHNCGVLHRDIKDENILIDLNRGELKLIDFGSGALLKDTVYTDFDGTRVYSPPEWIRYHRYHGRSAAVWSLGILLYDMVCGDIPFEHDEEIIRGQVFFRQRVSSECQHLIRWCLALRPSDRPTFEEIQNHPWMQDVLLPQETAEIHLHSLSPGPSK
Conditions: PIM1; 1 uM. An outline of the steps:
as §1

Experiment [13] concerns the target T13, kinases of the scanMAX Kinase assay panel (Homo sapiens, UniProt P06213).
T13 construct: purchased DiscoverX Co. (contract measurement) scanMAX Kinase assay panel
The conditions noted are these: INSR; 1 uM. In outline: as §1

In experiment [14] the target is T14, kinases of the scanMAX Kinase assay panel (Homo sapiens, UniProt P07949).
T14 construct: purchased DiscoverX Co. (contract measurement) scanMAX Kinase assay panel
T14 sequence (P07949 29-1114): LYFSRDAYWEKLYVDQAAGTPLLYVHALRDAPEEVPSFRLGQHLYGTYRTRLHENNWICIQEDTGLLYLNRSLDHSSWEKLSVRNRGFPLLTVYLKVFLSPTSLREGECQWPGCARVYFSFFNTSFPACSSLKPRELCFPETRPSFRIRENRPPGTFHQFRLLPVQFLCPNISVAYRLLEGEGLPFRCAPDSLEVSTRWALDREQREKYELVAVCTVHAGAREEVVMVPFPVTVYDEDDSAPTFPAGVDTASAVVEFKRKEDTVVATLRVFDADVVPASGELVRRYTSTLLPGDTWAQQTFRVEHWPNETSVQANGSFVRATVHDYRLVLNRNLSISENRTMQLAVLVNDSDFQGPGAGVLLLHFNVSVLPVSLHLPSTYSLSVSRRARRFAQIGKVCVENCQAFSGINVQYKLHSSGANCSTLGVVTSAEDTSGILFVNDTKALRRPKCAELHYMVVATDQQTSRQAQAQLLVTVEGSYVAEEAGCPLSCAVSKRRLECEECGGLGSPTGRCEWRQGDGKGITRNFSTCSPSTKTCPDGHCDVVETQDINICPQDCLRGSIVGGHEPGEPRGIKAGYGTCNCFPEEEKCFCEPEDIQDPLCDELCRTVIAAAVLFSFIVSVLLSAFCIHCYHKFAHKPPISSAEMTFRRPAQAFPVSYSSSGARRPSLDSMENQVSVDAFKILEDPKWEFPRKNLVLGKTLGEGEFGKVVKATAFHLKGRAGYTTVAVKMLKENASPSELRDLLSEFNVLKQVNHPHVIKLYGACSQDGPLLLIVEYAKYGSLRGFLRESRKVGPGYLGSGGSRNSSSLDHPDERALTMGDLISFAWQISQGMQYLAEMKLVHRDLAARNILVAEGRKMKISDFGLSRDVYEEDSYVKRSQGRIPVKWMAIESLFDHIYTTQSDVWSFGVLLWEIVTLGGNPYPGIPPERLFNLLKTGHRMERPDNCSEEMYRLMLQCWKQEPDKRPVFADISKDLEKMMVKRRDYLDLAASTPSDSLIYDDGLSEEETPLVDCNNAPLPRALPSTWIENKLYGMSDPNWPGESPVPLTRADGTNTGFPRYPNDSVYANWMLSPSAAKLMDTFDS
The conditions noted are these: kinase RET; 1 uM in DMSO. An outline of the steps:
as §1

Experiment [15] addresses T15, kinases of the scanMAX Kinase assay panel (Homo sapiens, UniProt Q07002).
T15 construct: purchased DiscoverX Co. (contract measurement) scanMAX Kinase assay panel
The conditions noted are these: PCTK3; 1 uM. In outline: as §1

T15 sequence (Q07002 whole entry): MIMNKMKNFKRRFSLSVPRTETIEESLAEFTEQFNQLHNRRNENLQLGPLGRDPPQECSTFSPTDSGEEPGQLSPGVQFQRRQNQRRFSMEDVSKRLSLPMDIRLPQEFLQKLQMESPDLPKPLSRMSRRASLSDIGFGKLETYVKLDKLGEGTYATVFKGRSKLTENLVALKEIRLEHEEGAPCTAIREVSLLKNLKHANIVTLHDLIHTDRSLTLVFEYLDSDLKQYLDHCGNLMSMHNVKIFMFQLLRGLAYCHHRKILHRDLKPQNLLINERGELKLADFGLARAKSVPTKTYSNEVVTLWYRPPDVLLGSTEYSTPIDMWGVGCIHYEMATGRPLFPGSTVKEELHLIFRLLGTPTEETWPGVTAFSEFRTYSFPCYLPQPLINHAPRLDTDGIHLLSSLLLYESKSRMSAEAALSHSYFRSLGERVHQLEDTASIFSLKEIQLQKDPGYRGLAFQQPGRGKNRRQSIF
T9 sequence (P27361 whole entry): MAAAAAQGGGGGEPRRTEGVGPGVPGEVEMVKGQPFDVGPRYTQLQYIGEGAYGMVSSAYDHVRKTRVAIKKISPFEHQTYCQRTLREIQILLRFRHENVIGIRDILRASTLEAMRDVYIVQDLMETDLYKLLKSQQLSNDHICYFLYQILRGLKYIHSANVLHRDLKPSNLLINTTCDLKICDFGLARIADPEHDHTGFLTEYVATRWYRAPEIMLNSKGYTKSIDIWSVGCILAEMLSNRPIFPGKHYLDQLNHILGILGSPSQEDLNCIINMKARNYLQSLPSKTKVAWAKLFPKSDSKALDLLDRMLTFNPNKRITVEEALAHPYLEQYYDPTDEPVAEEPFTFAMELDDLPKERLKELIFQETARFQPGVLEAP
T3 sequence (P09769 whole entry): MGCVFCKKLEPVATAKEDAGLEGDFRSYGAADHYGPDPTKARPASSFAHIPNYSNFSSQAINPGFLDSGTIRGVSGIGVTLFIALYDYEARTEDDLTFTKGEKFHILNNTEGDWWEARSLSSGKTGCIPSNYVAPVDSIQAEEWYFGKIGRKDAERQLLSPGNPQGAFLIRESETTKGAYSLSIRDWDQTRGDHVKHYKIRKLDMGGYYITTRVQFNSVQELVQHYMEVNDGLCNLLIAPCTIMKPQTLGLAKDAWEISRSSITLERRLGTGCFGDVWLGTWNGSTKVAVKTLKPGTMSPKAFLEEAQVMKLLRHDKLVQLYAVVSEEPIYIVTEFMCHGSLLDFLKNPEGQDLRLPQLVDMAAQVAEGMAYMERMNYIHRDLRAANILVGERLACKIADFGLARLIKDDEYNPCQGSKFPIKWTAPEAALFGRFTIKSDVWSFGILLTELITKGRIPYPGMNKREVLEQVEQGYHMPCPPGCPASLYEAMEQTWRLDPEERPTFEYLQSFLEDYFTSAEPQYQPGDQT
T7 sequence (P07949 29-1114 M918T): as the sequence (P07949 29-1114) above, with M890T counted along it
T1 sequence (Q96NX5 whole entry): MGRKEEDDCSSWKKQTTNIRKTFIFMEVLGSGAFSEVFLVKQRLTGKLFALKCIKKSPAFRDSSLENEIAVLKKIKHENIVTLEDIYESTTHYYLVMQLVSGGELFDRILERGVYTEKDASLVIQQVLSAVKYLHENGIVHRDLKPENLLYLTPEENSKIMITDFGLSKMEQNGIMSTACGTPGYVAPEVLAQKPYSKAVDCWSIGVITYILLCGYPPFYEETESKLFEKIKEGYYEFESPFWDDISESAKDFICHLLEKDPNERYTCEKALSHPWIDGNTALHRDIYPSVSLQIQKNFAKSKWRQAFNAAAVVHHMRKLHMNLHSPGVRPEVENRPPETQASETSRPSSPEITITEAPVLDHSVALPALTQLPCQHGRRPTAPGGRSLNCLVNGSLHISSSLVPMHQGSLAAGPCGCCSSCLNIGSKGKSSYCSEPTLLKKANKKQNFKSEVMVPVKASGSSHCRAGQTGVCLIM

In the case of `CNc1nc(Nc2ccc(C(=O)N3CCOCC3)cc2OC)nc2[nH]cc(C#N)c12` [Example 1, 2-((2-methoxy-4-(morpholine-4-carbonyl)phenyl)amino)-4-(methylamino)-7H-pyrrolo[2,3-d]pyrimidine-5-carbonitrile], the remaining binding at 1 µM was found to be 74% in experiment [1]; 64% in [2]; 94% in experiment [3]; 89% in [4]; 97% in experiment [5]; 69% in experiment [6]. For the same molecule, the remaining binding at 1 µM in experiment [7] is 94%; in experiment [8], 70%; in [9] it was 88%; in experiment [10], 5.3%; in [11] it was 97%; in [12], 85%. In addition, the remaining binding at 1 µM worked out at 48% in [13], 97% in [14] and 96% in experiment [15].

On to `CC1(Nc2nc(Nc3cnn([C@H]4CCN(C5COC5)C[C@@H]4F)c3Cl)nc3[nH]cc(C#N)c23)CC1` [Example 52, 2-((5-chloro-1-((3S,4S)-3-fluoro-1-(oxetane-3-yl)piperidine-4-yl)-1H-pyrazole-4-yl)amino)((1-methylcyclopropyl)amino)-7H-pyrrolo[2,3-d]pyrimidine-5-carbonitrile], for which the remaining binding at 1 µM in experiment [1] is 34%; in experiment [2] it was 86%; in experiment [3], 10%; in [4], 46%; in experiment [5], 90%; in experiment [6] it was 99%. The remaining binding at 1 µM in experiment [7] amounted to 0%; in [8] it was 99%; in experiment [9] it was 42%; in [10], 51%; in experiment [11], 70%; in experiment [12] it was 57%. The remaining binding at 1 µM stood at 0.35% in experiment [13], 0% in experiment [14] and 81% in [15].

For the molecule `CCNc1nc(Nc2ccc(C(=O)N3CCC(N4CCOCC4)CC3)cc2OC)nc2[nH]cc(C(F)(F)F)c12` [Example 104, (4-((4-(ethylamino)-5-(trifluoromethyl)-7H-pyrrolo[2,3-d]pyrimidine-2-yl)amino)-3-methoxyphenyl)(4-morpholinopiperidine-1-yl)methanone], the remaining binding at 1 µM in experiment [1] is 94%; in experiment [2] it was 90%; in [3], 100%; in experiment [4] it was 88%; in experiment [5], 99%; in experiment [6], 100%. The remaining binding at 1 µM in experiment [7] stood at 96%; in experiment [8], 100%; in experiment [9] it was 100%; in experiment [10], 0.7%; in [11] it was 74%; in experiment [12], 80%. Further, the remaining binding at 1 µM in [13] was found to be 7.1%; in [14], 98%; in [15] it was 94%.
